Measurements taken from patent publication US20120252801A1, “ANTIFUNGAL COMPOUNDS” (Katholieke Universiteit Leuven, K.U.Leuven R&D, priority 2009, published 2012).
In brackets after ≈: the same amount, converted by molar mass.

How the values were obtained:
[1] = system: C. glabrata; assay: Minimal fungicidal concentration (MFC) against C. glabrata; type: cell-based, Candida glabrata; conditions: Nakaseomyces glabratus; 24 h at 37° C. in PBS; less than 1% survival relative to DMSO control
Protocol: (§1) Two-fold dilution series of the compounds were prepared in 50% DMSO. 5 μl of these series were added to 95 μl PBS buffer inoculated with 1/500 cells of an overnight culture of either C. albicans, C. glabrata or C. krusei (final DMSO conc 2%). 2% DMSO served as negative control. After 24 h incubation at 37° C. of these cultures with the antifungal compounds in PBS, the cell cultures were plated on YPD agar and colony forming units (CFUs) were determined after incubation of the plates for 2 days. MFC was determined as the minimal concentration of a compound resulting in less than 1% survival of the yeast culture relative to the DMSO control.

[2] = system: C. albicans SC5314; assay: Minimal fungicidal concentration (MFC) against C. albicans; type: cell-based; conditions: Candida albicans, 24 h at 37° C. in PBS, less than 1% survival relative to DMSO control
Protocol: as §1

[3] = system: Aspergillus flavus; assay: Minimal inhibitory concentration (MIC) against A. flavus; type: cell-based; conditions: 24 h at 25° C. in ½ PDB, minimal concentration that inhibits growth
Protocol: (§2) To determine the MIC and MFC of a compound against Aspergillus flavus, Fusarium oxysporum or F. culmorum, a 2-fold dilution series of the compounds of the invention was incubated with the corresponding spore suspension in ½ PDB (potato dextrose broth, Difco) (2×10^4 spores/ml). […] MFC was determined as the minimal concentration of a compound resulting in less than 1% survival of the fungal culture relative to the DMSO control.

[4] = system: A. fumigatus; assay: Minimal inhibitory concentration (MIC) against A. fumigatus; type: cell-based; conditions: Aspergillus fumigatus; minimal concentration that inhibits growth
[5] = system: Fusarium oxysporum; assay: Minimal inhibitory concentration (MIC) against F. oxysporum; type: cell-based; conditions: 24 h at 25° C. in ½ PDB, minimal concentration that inhibits growth
Protocol: as §2

| Compound | MIC [3] [µg/mL] | MIC [4] [µg/mL] | MIC [5] [µg/mL] | MFC [1] [µg/mL] | MFC [2] [µg/mL] |
| --- | --- | --- | --- | --- | --- |
| CCN1CC(C)(C)OC(=O)C1CC(=O)NC1CCc2ccccc21 (stereo not shown) [CPD-09, N-(2,3-dihydro-1H-inden-1-yl)-2-(4-ethyl-6,6-dimethyl-2-oxomorpholin-3-yl)acetamide] | > 50 | 50 (≈ 151 µM) | > 50 | 50 (≈ 151 µM) | 25 (≈ 75.7 µM) |
| CCN1CC(C)(C)OC(=O)C1CC(=O)Nc1ccc2scnc2c1 (stereo not shown) [CPD-10, N-(benzo[d]thiazol-5-yl)-2-(4-ethyl-6,6-dimethyl-2-oxomorpholin-3-yl)acetamide] | > 50 | 12.5 (≈ 36 µM) | > 50 | > 50 | > 50 |
| CCN1CC(C)(C)OC(=O)C1CC(=O)NC1CCN(Cc2ccccc2)CC1 (stereo not shown) [CPD-14, N-(1-benzylpiperidin-4-yl)-2-(4-ethyl-6,6-dimethyl-2-oxomorpholin-3-yl)acetamide] | > 50 | > 50 | > 50 | > 50 | 25 (≈ 64.5 µM) |
| CCN1CC(C)(C)OC(=O)C1CC(=O)NCCc1ccccc1 (stereo not shown) [CPD-18, 2-(4-ethyl-6,6-dimethyl-2-oxomorpholin-3-yl)-N-phenethylacetamide] | 25 (≈ 78.5 µM) | 6.25 (≈ 19.6 µM) | > 50 | 50 (≈ 157 µM) | 25 (≈ 78.5 µM) |
| CCN1CC(C)(C)OC(=O)C1CC(=O)NCc1ccco1 (stereo not shown) [CPD-23, 2-(4-ethyl-6,6-dimethyl-2-oxomorpholin-3-yl)-N-(furan-2-ylmethyl)acetamide] | 50 (≈ 170 µM) | 25 (≈ 84.9 µM) | 50 (≈ 170 µM) | > 50 | 50 (≈ 170 µM) |
| CCCNC(=O)CC1C(=O)OC(C)(C)CN1CC (stereo not shown) [CPD-36, 2-(4-ethyl-6,6-dimethyl-2-oxomorpholin-3-yl)-N-propylacetamide] | > 50 | 50 (≈ 195 µM) | > 50 | > 50 | 25 (≈ 97.5 µM) |
| CCN1CC(C)(C)OC(=O)C1CC(=O)NCCC(C)(C)C (stereo not shown) [CPD-38, N-(3,3-dimethylbutyl)-2-(4-ethyl-6,6-dimethyl-2-oxomorpholin-3-yl)acetamide] | 50 (≈ 168 µM) | 50 (≈ 168 µM) | 50 (≈ 168 µM) | 12.5 (≈ 41.9 µM) | 25 (≈ 83.8 µM) |
| CCN1CC(C)(C)OC(=O)C1CC(=O)NCC(F)(F)F (stereo not shown) [CPD-39, 2-(4-ethyl-6,6-dimethyl-2-oxomorpholin-3-yl)-N-(2,2,2-trifluoroethyl)acetamide] | > 50 | 25 (≈ 84.4 µM) | > 50 | > 50 | 50 (≈ 169 µM) |
| CCN1CC(C)(C)OC(=O)C1CC(=O)NCC1CCCCC1 (stereo not shown) [CPD-47, N-(cyclohexylmethyl)-2-(4-ethyl-6,6-dimethyl-2-oxomorpholin-3-yl)acetamide] | 50 (≈ 161 µM) | 25 (≈ 80.5 µM) | > 50 | 6.25 (≈ 20.1 µM) | 25 (≈ 80.5 µM) |
| CCN1CC(C)(C)OC(=O)C1CC(=O)NCc1ccc(Cl)c(Cl)c1 (stereo not shown) [CPD-50, N-(3,4-dichlorobenzyl)-2-(4-ethyl-6,6-dimethyl-2-oxomorpholin-3-yl)acetamide] | 6.25 (≈ 16.7 µM) | 1.6 (≈ 4.29 µM) | 25 (≈ 67 µM) | 3.12 (≈ 8.36 µM) | 12.5 (≈ 33.5 µM) |
| CCN1CC(C)(C)OC(=O)C1CC(=O)NCc1ccccc1Cl (stereo not shown) [CPD-57, N-(2-chlorobenzyl)-2-(4-ethyl-6,6-dimethyl-2-oxomorpholin-3-yl)acetamide] | – | – | – | – | 25 (≈ 73.8 µM) |
| CCN1CC(C)(C)OC(=O)C1CC(=O)NCc1ccccc1C (stereo not shown) [CPD-69, 2-(4-ethyl-6,6-dimethyl-2-oxomorpholin-3-yl)-N-(2-methylbenzyl)acetamide] | – | – | – | – | 25 (≈ 78.5 µM) |
| CCN1CC(C)(C)OC(=O)C1CC(=O)NCc1cccc(C)c1 (stereo not shown) [CPD-70, 2-(4-ethyl-6,6-dimethyl-2-oxomorpholin-3-yl)-N-(3-methylbenzyl)acetamide] | – | – | – | – | 25 (≈ 78.5 µM) |
| CCN1CC(C)(C)OC(=O)C1CC(=O)NCc1ccc(C(F)(F)F)cc1 (stereo not shown) [CPD-71, 2-(4-ethyl-6,6-dimethyl-2-oxomorpholin-3-yl)-N-(4-(trifluoromethyl)benzyl)acetamide] | – | – | – | – | 25 (≈ 67.1 µM) |
| CCN1CC(C)(C)OC(=O)C1CC(=O)NCc1ccc(OC)cc1 (stereo not shown) [CPD-72, 2-(4-ethyl-6,6-dimethyl-2-oxomorpholin-3-yl)-N-(4-methoxybenzyl)acetamide] | – | – | – | – | 25 (≈ 74.8 µM) |
| CCN1CC(C)(C)OC(=O)C1CC(=O)NCc1ccc(-c2ccccc2)cc1 (stereo not shown) [CPD-73, N-(biphenyl-4-ylmethyl)-2-(4-ethyl-6,6-dimethyl-2-oxomorpholin-3-yl)acetamide] | – | – | – | – | 25 (≈ 65.7 µM) |
| CCN1CC(C)(C)OC(=O)C1CC(=O)NCc1ccc(C)cc1 (stereo not shown) [CPD-76, 2-(4-ethyl-6,6-dimethyl-2-oxomorpholin-3-yl)-N-(4-methylbenzyl)acetamide] | 25 (≈ 78.5 µM) | 3.12 (≈ 9.81 µM) | > 25 | 6.25 (≈ 19.6 µM) | 25 (≈ 78.5 µM) |
| CCN1CC(C)(C)OC(=O)C1CC(=O)NCc1ccccc1C(F)(F)F (stereo not shown) [CPD-77, 2-(4-ethyl-6,6-dimethyl-2-oxomorpholin-3-yl)-N-(2-(trifluoromethyl)benzyl)acetamide] | 25 (≈ 67.1 µM) | 3.12 (≈ 8.39 µM) | 25 (≈ 67.1 µM) | 12.5 (≈ 33.6 µM) | 25 (≈ 67.1 µM) |
| CCN1CC(C)(C)OC(=O)C1CC(=O)NCc1cccc(C(F)(F)F)c1 (stereo not shown) [CPD-78, 2-(4-ethyl-6,6-dimethyl-2-oxomorpholin-3-yl)-N-(3-(trifluoromethyl)benzyl)acetamide] | > 25 | 6.25 (≈ 16.8 µM) | > 25 | 12.5 (≈ 33.6 µM) | 25 (≈ 67.1 µM) |
| CCN1CC(C)(C)OC(=O)C1CC(=O)NCc1ccccc1OC (stereo not shown) [CPD-79, 2-(4-ethyl-6,6-dimethyl-2-oxomorpholin-3-yl)-N-(2-methoxybenzyl)acetamide] | > 25 | 12.5 (≈ 37.4 µM) | > 25 | 25 (≈ 74.8 µM) | > 25 |
| CCN1CC(C)(C)OC(=O)C1CC(=O)NCc1cccc(OC)c1 (stereo not shown) [CPD-80, 2-(4-ethyl-6,6-dimethyl-2-oxomorpholin-3-yl)-N-(3-methoxybenzyl)acetamide] | > 25 | 6.25 (≈ 18.7 µM) | > 25 | 12.5 (≈ 37.4 µM) | 25 (≈ 74.8 µM) |

The next lines start with results.

| MIC [3] [µg/mL] | MIC [4] [µg/mL] | MIC [5] [µg/mL] | Compound | MFC [1] [µg/mL] | MFC [2] [µg/mL] |
| --- | --- | --- | --- | --- | --- |
| 12.5 (≈ 32.9 µM) | 0.8 (≈ 2.1 µM) | – | CCN1CC(c2ccccc2)OC(=O)C1CC(=O)Nc1ccc(C(C)C)cc1 (stereo not shown) [CPD-01, 2-(4-ethyl-2-oxo-6-phenylmorpholin-3-yl)-N-(4-isopropylphenyl)acetamide] | 12.5 (≈ 32.9 µM) | 12.5 (≈ 32.9 µM) |
| 6.25 (≈ 16.4 µM) | 0.8 (≈ 2.1 µM) | – | CCN1C[C@H](c2ccccc2)OC(=O)C1CC(=O)Nc1ccc(C(C)C)cc1 (stereo partly drawn) [CPD-02, 2-((6S)-4-ethyl-2-oxo-6-phenylmorpholin-3-yl)-N-(4-isopropylphenyl)acetamide] | 12.5 (≈ 32.9 µM) | 12.5 (≈ 32.9 µM) |
| 6.25 (≈ 19.6 µM) | 0.8 (≈ 2.51 µM) | – | CCN1C[C@H](C)OC(=O)C1CC(=O)Nc1ccc(C(C)C)cc1 (stereo partly drawn) [CPD-03, 2-((6S)-4-ethyl-6-methyl-2-oxomorpholin-3-yl)-N-(4-isopropylphenyl)acetamide] | 6.25 (≈ 19.6 µM) | 12.5 (≈ 39.3 µM) |
| 12.5 (≈ 32.9 µM) | 0.8 (≈ 2.1 µM) | – | CCN1C[C@@H](c2ccccc2)OC(=O)C1CC(=O)Nc1ccc(C(C)C)cc1 (stereo partly drawn) [CPD-04, 2-((6R)-4-ethyl-2-oxo-6-phenylmorpholin-3-yl)-N-(4-isopropylphenyl)acetamide] | 6.25 (≈ 16.4 µM) | 12.5 (≈ 32.9 µM) |
| 6.25 (≈ 19.6 µM) | 0.8 (≈ 2.51 µM) | – | CCN1C[C@@H](C)OC(=O)C1CC(=O)Nc1ccc(C(C)C)cc1 (stereo partly drawn) [CPD-05, 2-((6R)-4-ethyl-6-methyl-2-oxomorpholin-3-yl)-N-(4-isopropylphenyl)acetamide] | 6.25 (≈ 19.6 µM) | 12.5 (≈ 39.3 µM) |
| 50 (≈ 164 µM) | 12.5 (≈ 41.1 µM) | > 50 | CCN1CC(C)(C)OC(=O)C1CC(=O)NCc1ccccc1 (stereo not shown) [CPD-12, N-benzyl-2-(4-ethyl-6,6-dimethyl-2-oxomorpholin-3-yl)acetamide] | 25 (≈ 82.1 µM) | 12.5 (≈ 41.1 µM) |
| > 25 | 12.5 (≈ 32.7 µM) | > 25 | CC(C)c1ccc(NC(=O)CC2C(=O)OC(C)(C)CN2S(C)(=O)=O)cc1 (stereo not shown) [CPD-75, 2-(6,6-dimethyl-4-(methylsulfonyl)-2-oxomorpholin-3-yl)-N-(4-isopropylphenyl)acetamide] | > 25 | > 25 |
| 25 (≈ 65.7 µM) | 3.12 (≈ 8.21 µM) | 25 (≈ 65.7 µM) | CCN1CC(C)(C)OC(=O)C1CC(=O)NCc1ccccc1-c1ccccc1 (stereo not shown) [CPD-81, N-(biphenyl-2-ylmethyl)-2-(4-ethyl-6,6-dimethyl-2-oxomorpholin-3-yl)acetamide] | 12.5 (≈ 32.9 µM) | 12.5 (≈ 32.9 µM) |
| 25 (≈ 65.7 µM) | 3.12 (≈ 8.21 µM) | 25 (≈ 65.7 µM) | CCN1CC(C)(C)OC(=O)C1CC(=O)NCc1cccc(-c2ccccc2)c1 (stereo not shown) [CPD-82, N-(biphenyl-3-ylmethyl)-2-(4-ethyl-6,6-dimethyl-2-oxomorpholin-3-yl)acetamide] | 12.5 (≈ 32.9 µM) | 12.5 (≈ 32.9 µM) |
